From patent US7109294B2, “Bacterial glycosyltransferase polypeptides involved in antibiotic resistance” (priority 2001, dated 2006)

Key:
Type in all cases: cell-based, Pseudomonas aeruginosa
[1] = test system: 30B1 mutant (PA1874 transposon insertion) biofilm grown cells
[2] = test system: 45E7 mutant planktonic cells; assay: microbe, parasite or virus in culture; conditions: for MBC: Pseudomonas aeruginosa, read-out: MBC-P, MBC of planktonically grown cells
[3] = test system: P. aeruginosa PA14 wild type planktonic cells; assay: microbe, parasite or virus in culture; conditions: for MBC: Pseudomonas aeruginosa, PA14, 24 h, read-out: MBC-P, MBC of planktonically grown cells
[4] = test system: 45E7 mutant (PA1163 transposon insertion) biofilm grown cells
[5] = test system: P. aeruginosa PA14 wild type biofilm grown cells
[6] = test system: 30B1 mutant planktonic cells; assay: microbe, parasite or virus in culture; conditions: for MBC: Pseudomonas aeruginosa, read-out: MBC-P, MBC of planktonically grown cells
[7] = test system: wild type flow cell biofilm
[8] = test system: wild type colony biofilm

Compound | MBC-B, MBC of biofilm grown cells [1] [µg/mL] | MBC [2] [µg/mL] | MBC [3] [µg/mL] | MBC of biofilm grown 45E7 lower compared to the wt [4] [fold] | MBC-B, MBC of biofilm grown cells [4] [µg/mL] | MBC-B, MBC of biofilm grown cells [5] [µg/mL] | MBC [6] [µg/mL] | MBC-P, MBC of planktonically grown cells [2] [µg/mL] | MBC-P, MBC of planktonically grown cells [3] [µg/mL] | MBC-P, MBC of planktonically grown cells [6] [µg/mL] | live versus dead cells in Tb-treated biofilm (BacLight) [7] | drop of viability in colony biofilm [8] [fold] | decrease of planktonic MBC relative to the biofilm-grown bacteria [3] [fold]
O=C(O)c1cn(C2CC2)c2cc(N3CCNCC3)c(F)cc2c1=O [Cip, ciprofloxacin] | 12.5 | 4 | 4 | 8 | 6 | 50 | 4 |  |  |  |  |  | 
gentamycin [Gm] | 250 |  |  | 8 | 60 | 500 |  | 40 | 40 | 40 |  |  | 
NC[C@H]1O[C@H](O[C@H]2[C@H](O)[C@@H](O[C@H]3O[C@H](CO)[C@@H](O)[C@H](N)[C@H]3O)[C@H](N)C[C@@H]2N)[C@H](N)C[C@@H]1O [Tb, tobramycin] | 100 | 8 | 8 | 16 | 25 | 400 | 8 |  |  |  | more live than dead cells | ~100 | 50
